In PubChem BioAssay (NCI):
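Following 48 hours of exposure in 96-well plates, responses at five concentrations were used to interpolate endpoints linearly. TGI marks complete inhibition of growth.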

Tests used:
Experiment in all cases: inhibition of tumour cell growth, NCI panel, 48 h
TK-10 renal = tested on: TK-10 renal
SW-620 colon = tested on: SW-620 colon
RPMI-8226 leukemia = tested on: RPMI-8226 leukemia
HT29 colon = tested on: HT29 colon
OVCAR-5 ovarian = tested on: OVCAR-5 ovarian
ACHN renal = tested on: ACHN renal
M14 melanoma = tested on: M14 melanoma
SK-MEL-28 melanoma = tested on: SK-MEL-28 melanoma
HOP-62 NSCLC = tested on: HOP-62 NSCLC
SN12C renal = tested on: SN12C renal
NCI-H522 lung = tested on: NCI-H522 lung
T-47D breast = tested on: T-47D breast
EKVX NSCLC = tested on: EKVX NSCLC
MDA-N = tested on: MDA-N
OVCAR-3 ovarian = tested on: OVCAR-3 ovarian
UACC-62 melanoma = tested on: UACC-62 melanoma
MALME-3M melanoma = tested on: MALME-3M melanoma
SF-295 CNS = tested on: SF-295 CNS
BT-549 breast = tested on: BT-549 breast

Compound	TGI (TK-10 renal)	TGI (SW-620 colon)	TGI (RPMI-8226 leukemia)	TGI (HT29 colon)	TGI (OVCAR-5 ovarian)	TGI (ACHN renal)	TGI (M14 melanoma)	TGI (SK-MEL-28 melanoma)	TGI (HOP-62 NSCLC)	TGI (SN12C renal)	TGI (NCI-H522 lung)	TGI (T-47D breast)	TGI (EKVX NSCLC)	TGI (MDA-N)	TGI (OVCAR-3 ovarian)	TGI (UACC-62 melanoma)	TGI (MALME-3M melanoma)	TGI (SF-295 CNS)	TGI (BT-549 breast)
COc1cc(C)cc(C(=O)OCc2ccccc2)c1C1=C(Cl)C(=O)C(Cl)=CC1=O	> 10 µM	> 10 µM	> 10 µM	> 10 µM	> 10 µM	> 10 µM	> 10 µM	> 10 µM	> 10 µM	> 10 µM	3.69 µM	> 10 µM	> 10 µM	> 10 µM	> 10 µM	> 10 µM	> 10 µM	> 10 µM	> 10 µM
N=C(N)SCCSC(=N)N	> 100 µM	> 100 µM	> 100 µM	> 100 µM	> 100 µM	> 100 µM	> 100 µM	> 100 µM	> 100 µM	> 100 µM	> 100 µM	> 100 µM	> 100 µM	> 100 µM	> 100 µM	> 100 µM	> 100 µM	> 100 µM	> 100 µM
CC[C@H](C)[C@H](NC(=O)[C@H](Cc1ccc(O)cc1)NCC(F)(F)F)C(=O)OC(C)(C)C	15.4 µM	23 µM	23.5 µM	16.3 µM	18 µM	13.9 µM	15.1 µM	19.1 µM	20.5 µM	17.3 µM	20.1 µM	18.3 µM	15.1 µM	17.7 µM		12.9 µM	22.1 µM	15.2 µM	34.7 µM
Cc1ccc(NC(=O)C23CC4CC(CC(C4)C2)C3)c(C(=O)NNC(=O)c2ccc(Cl)cc2)c1	41.5 µM	> 100 µM	41.5 µM	72.9 µM	61.3 µM	37.8 µM	> 100 µM		49.6 µM	> 100 µM	30.4 µM	> 100 µM	68 µM	52.1 µM	66.9 µM	53.2 µM	59.4 µM	66.5 µM	> 100 µM
[N-]=[N+]=NCC(=O)c1c[nH]c(=O)[nH]c1=O	> 100 µM	> 100 µM	> 100 µM	> 100 µM	> 100 µM	> 100 µM	> 100 µM	> 100 µM	> 100 µM	> 100 µM	> 100 µM	> 100 µM	> 100 µM	> 100 µM	> 100 µM	> 100 µM	> 100 µM	> 100 µM	> 100 µM
C=CC(C)(C)c1c(OC)oc2ccc(OC)c(C)c2c1=O	> 100 µM	> 100 µM	> 100 µM	> 100 µM	> 100 µM	> 100 µM	> 100 µM	> 100 µM	> 100 µM	> 100 µM	> 100 µM	> 100 µM	> 100 µM	> 100 µM	> 100 µM	> 100 µM	> 100 µM	> 100 µM	> 100 µM
COCN1C(=O)[C@@H]2CCCN2C(=O)c2ccc(Cl)cc21	> 100 µM	> 100 µM	> 100 µM	> 100 µM	> 100 µM	> 100 µM	> 100 µM	> 100 µM	> 100 µM	> 100 µM	> 100 µM	> 100 µM	> 100 µM	> 100 µM		> 100 µM	> 100 µM	> 100 µM	> 100 µM
